Assay results reported in the NIST ThermoML archive (doi:10.1021/je049661s).

Experiments:
[1] = 101.3 kPa, Liquid
[2] = xn = mol fraction of the nth substance listed; details: 101.3 kPa, Liquid

C1CCCCC1 [cyclohexane]
[1]
Details	mass density [kg/m3]	viscosity [mPa·s]
298.15 K	773.9	0.8945
303.15 K	768.6	0.8284
308.15 K	761.2	0.7637

C1CCCCC1 [cyclohexane] + O=C1CCCCC1
[2], x1 = 1
Details	mass density [kg/m3]	viscosity [mPa·s]
298.15 K	773.9	0.8945
303.15 K	768.6	0.8284
308.15 K	761.2	0.7637

C1CCCCC1 [cyclohexane] + O=[N+]([O-])c1ccccc1
[2], x1 = 1
Details	mass density [kg/m3]	viscosity [mPa·s]
298.15 K	773.9	0.8945
303.15 K	768.6	0.8284
308.15 K	761.2	0.7637

O=C1CCCCC1 [cyclohexanone]
[1]
Details	mass density [kg/m3]	viscosity [mPa·s]
298.15 K	941	2.021
303.15 K	937.4	1.806
308.15 K	936.5	1.585

O=C1CCCCC1 [cyclohexanone] + C1CCCCC1
[2]
Details	mass density, 298.15 K [kg/m3]	mass density, 303.15 K [kg/m3]	mass density, 308.15 K [kg/m3]	viscosity, 298.15 K [mPa·s]	viscosity, 303.15 K [mPa·s]	viscosity, 308.15 K [mPa·s]
x2 = 0	941	937.4	936.5	2.021	1.806	1.585
x2 = 0.0964	921.6	917.9	916.6	1.852	1.661	1.485
x2 = 0.2003	901.3	897.6	895.7	1.682	1.522	1.384
x2 = 0.2916	883.8	880.2	878.3	1.541	1.406	1.296
x2 = 0.3895	866	862.8	860.3	1.403	1.294	1.203
x2 = 0.4894	–	845.5	842.6	–	1.184	1.112
x2 = 0.4895	848.9	–	–	1.275	–	–
x2 = 0.5886	–	828.7	825.6	–	1.084	1.025
x2 = 0.5887	832.5	–	–	1.163	–	–
x2 = 0.6957	815.4	811.6	807.5	1.063	0.9925	0.9408
x2 = 0.7951	800.3	796.3	791.3	0.9917	0.9237	0.8704
x2 = 0.8968	–	781.8	775.5	–	0.8707	0.8101
x2 = 0.8969	786.5	–	–	0.9386	–	–

O=C1CCCCC1 [cyclohexanone] + O=[N+]([O-])c1ccccc1
[2], x1 = 1
Details	mass density [kg/m3]	speed of sound [m/s]	viscosity [mPa·s]
298.15 K	941	1847.7	2.021
303.15 K	937.4	–	1.806
308.15 K	936.5	–	1.585

O=[N+]([O-])c1ccccc1 [nitrobenzene]
[1]
Details	mass density [kg/m3]	speed of sound [m/s]	viscosity [mPa·s]
298.15 K	1198.5	1648.4	1.686
303.15 K	1193.6	–	1.619
308.15 K	1191.1	–	1.554

O=[N+]([O-])c1ccccc1 [nitrobenzene] + C1CCCCC1
[2]
Details	mass density, 298.15 K [kg/m3]	mass density, 303.15 K [kg/m3]	mass density, 308.15 K [kg/m3]	viscosity, 298.15 K [mPa·s]	viscosity, 303.15 K [mPa·s]	viscosity, 308.15 K [mPa·s]
x2 = 0	1198.5	1193.6	1191.1	1.686	1.619	1.554
x2 = 0.0951	1160.4	1158	1156	1.589	1.527	1.489
x2 = 0.1908	1121.8	1119.7	1117.6	1.482	1.423	1.385
x2 = 0.2875	1080.5	1078	1075.5	1.369	1.313	1.276
x2 = 0.3866	1037.9	1035	1031.9	1.26	1.21	1.168
x2 = 0.4828	996	993	990	1.167	1.117	1.074
x2 = 0.5865	950.4	947.6	945	1.083	1.032	0.9873
x2 = 0.685	907.2	905	902.3	1.022	0.968	0.9182
x2 = 0.7901	861.6	860	856.6	0.9712	0.9142	0.8626
x2 = 0.896	816.9	814.4	809.1	0.9338	0.874	0.8182

O=[N+]([O-])c1ccccc1 [nitrobenzene] + O=C1CCCCC1
[2]
Details	mass density, 298.15 K [kg/m3]	mass density, 303.15 K [kg/m3]	mass density, 308.15 K [kg/m3]	speed of sound, 298.15 K [m/s]	speed of sound, 303.15 K [m/s]	speed of sound, 308.15 K [m/s]	viscosity, 298.15 K [mPa·s]	viscosity, 303.15 K [mPa·s]	viscosity, 308.15 K [mPa·s]
x2 = 0	1198.5	1193.6	1191.1	1648.4	–	1961	1.686	1.619	1.554
x2 = 0.098	1169.6	1167.6	1166.8	1696	1842.8	1991	1.752	1.645	1.556
x2 = 0.1946	1141.8	1140.8	1140.3	1733	1873	2019.9	1.785	1.666	1.557
x2 = 0.2933	1114.5	1113.4	1112.9	1764.1	1901.5	2041.5	1.802	1.678	1.559
x2 = 0.3938	1087.5	1085.6	1084.9	1790	1927.7	2058.6	1.812	1.685	1.561
x2 = 0.495	1061.3	1058.9	1057.9	1811.2	1945	2069.7	1.827	1.695	1.562
x2 = 0.592	1036.9	1034.5	1033.4	1825.7	1957	2076.4	1.848	1.704	1.565
x2 = 0.6945	1011.6	1009.6	1008.6	1839.8	1962	2080.5	1.879	1.721	1.567
x2 = 0.7966	987.5	985.7	985	1848.3	1963	2080	1.921	1.749	1.571
x2 = 0.8973	963.4	961.9	961.4	1853.5	1964.1	2081.5	1.97	1.778	1.577
